Data reported in PMC11249646, “Small-Molecule Disruptors of the Interaction between Calcium- and Integrin-Binding Protein 1 and Integrin αIIbβ3 as Novel Antiplatelet Agents” (ACS Pharmacology & Translational Science, 2024).
Where two headings read alike, the source gives them in different places.

Key:
[1] = test system: washed human platelets; assay: Human platelet aggregation assay (thrombin-induced); format: cell-based
Procedure, shortened: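 Washed platelets (2 × 10^8/mL) from citrated blood of healthy volunteers, pretreated 30 min at 37 °C with compound or DMSO vehicle, then activated with 0.03 U/mL thrombin. Aggregation traces recorded by aggregometry; P-selectin (CD62P) exposure measured by flow cytometry.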

[2] = biological target: T1, GST-CIB1:F-αIIb interaction (Homo sapiens, UniProt Q99828); assay: Gel-based (in-gel) binding assay; settings: 1 μM GST-CIB1, 400 nM F-αIIb; 60 μM, 1:2, 4-points
T1 construct: made in house; host or cells: BL-21 plus RIL cells (E. coli)
T1 sequence (Q99828 1-191): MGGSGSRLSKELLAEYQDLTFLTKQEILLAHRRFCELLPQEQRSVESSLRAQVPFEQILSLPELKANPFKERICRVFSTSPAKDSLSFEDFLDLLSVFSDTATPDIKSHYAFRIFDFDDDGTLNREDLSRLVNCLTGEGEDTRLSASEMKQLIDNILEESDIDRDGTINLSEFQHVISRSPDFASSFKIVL

[3] = In vitro ADME: solubility; format: physicochemical; settings: read-out: Solubility
[4] = biological target: T2, CIB1 and αIIb interaction (CIB1-GST : F-αIIb peptide) (Homo sapiens, UniProt Q99828); assay: FP assay, 1536-well qHTS format (primary and confirmatory screen); format: binding
T2 construct: made in house; host or cells: BL-21 plus RIL cells (E. coli)
T2 sequence (Q99828 1-191): T1 sequence (Q99828 1-191)

[5] = biological target: T3, GST-CIB1 : F-scrambled peptide (Homo sapiens, UniProt Q99828); assay: FP scrambled-peptide counter screen, 1536-well format; format: binding; settings: scrambled-peptide counterscreen
T3 construct: made in house; host or cells: BL-21 plus RIL cells (E. coli)
T3 sequence (Q99828 1-191): T1 sequence (Q99828 1-191)

[6] = biological target: T4, CIB1 and αIIb peptide (Homo sapiens, UniProt Q99828); assay: Intrinsic tryptophan fluorescence (ITF) assay
T4 sequence (Q99828 1-191): T1 sequence (Q99828 1-191)

[7] = In vitro ADME: PAMPA permeability
[8] = biological target: T5, CIB1-(His)6 (Homo sapiens, UniProt Q99828); assay: Microscale thermophoresis (MST) protein and small-molecule binding; settings: MST; fluorescently labeled CIB1-(His)6 50 nM; read-out: equilibrium dissociation constant (Kd)
T5 construct: made in house
T5 sequence (Q99828 1-191): T1 sequence (Q99828 1-191)
Method: Determining a direct measurement of a molecule’s binding interaction with its target is a vital parameter for characterizing a chemical probe. We employed microscale thermophoresis (MST) for this purpose, leveraging its sensitivity and capacity to deliver quantitative data on the binding interaction.[35] […] We began by testing increasing amounts of the compound(s) and incubating them with the fluorescently labeled CIB1-(His)6, followed by the detection of the MST traces on the NT automated instrument (for more details see Materials and Methods Section). […] We were able to rule out compound interference with the histidine tag on CIB1 and/or the fluorophore used for the MST assay by testing the compounds with a fluorescently labeled hexa-histidine peptide (Figure S8B).
The binding affinity of the compounds to the CIB1-(His)6 protein was evaluated using microscale thermophoresis (MST). The recombinant protein was labeled with a fluorophore using Monolith His-tag labeling RED-tris-NTA second Generation kit (Nanotemper Technologies, Munich, Germany) following the manufacturer’s protocol. Compounds were titrated in a 2-fold dilution series (16 points, final concentration range of 6.1 nM to 200 μM) and incubated with the same volume of 50 nM (final concentration; 25 nM RED-tris-NTA) labeled recombinant protein for 30 min at RT (20 μL final assay volume). […] The dissociation constant (Kd) values were calculated by fitting the thermophoresis signal at 20 s of the thermograph using the MO Affinity Analysis software (Nanotemper Technologies, Munich, Germany) and confirmed using GraphPad Prism.

[9] = test system: P-selectin (CD62P) exposure on human platelets; assay: Thrombin-induced P-selectin (CD62P) exposure, flow cytometry; format: cell-based; settings: various doses
Method: […]. These findings indicate that through the utilization of this FP assay, we successfully identified inhibitors of platelet function, which may warrant further assessment for their potential as antiplatelet agents.
Figure 6 Effect of compounds on human platelet activation. Representative platelet aggregation tracings of washed human platelet suspensions pretreated for 30 min at 37 °C with vehicle (DMSO) or compounds at indicated concentrations followed by activation with thrombin (0.03–0.1 U/mL). Panel (A): NCGC00071855. Panel (B–D): NCGC00351170. Panel (E): CD62P exposure was in the presence of NCGC00351170. Data represents mean ± SEM, n = 4 individual experiments; ns = non significant *P < 0.05, ***P < 0.001, ****P < 0.0001.
Whole blood was drawn by venipuncture from healthy adult volunteers (of both gender and race) with informed consent. Approval was obtained from the institutional review boards of Thomas Jefferson University, according to the Declaration of Helsinki. Blood was collected in acidified citrate dextrose as an anticoagulant. Platelet-rich plasma (PRP) and washed platelets were prepared, as previously described.[44] Platelet aggregation was performed using washed platelet suspensions containing 2 × 10^8 platelets/mL using a Chrono-Log Lumi-Aggregometer (Chrono-Log), as described previously.[11] Aggregation traces were recorded by using Aggrolink software (Chrono-Log). […]

[10] = biological target: T6, GST-CIB1 : F-αIIb peptide (Homo sapiens, UniProt Q99828); assay: FP assay in the presence of glutathione (GSH), thiol reactivity; format: binding
T6 construct: made in house; host or cells: BL-21 plus RIL cells (E. coli)
T6 sequence (Q99828 1-191): T1 sequence (Q99828 1-191)

Compound: COc1ccccc1C(=O)c1no[n+]([O-])c1C(=O)c1ccccc1OC.O=C(O)C(F)(F)F [NCGC00351170-01]
- Platelet Aggregation Result ([1]; 10 μM compound): Active
- inhibition at 10 µM ([1]; Homo sapiens, Platelet, single concentration of 10 μM (n = 3), thrombin): 94%
- lowest concentration required to achieve >95% inhibition of platelet aggregation ([1]; dose response, thrombin): 2 µM
- Thrombin Assay 10 µM (%) ([1]; platelet aggregation inhibition at 10 µM): 94%
- Active in Gel Assay? [2]: YES
- solubility [3]: > 0.052 mg/mL
- CONFIRMATORY SCREEN Confirm? ([4]; confirmatory screen, YES/NO call): YES
- CONFIRMATORY SCREEN Curve Class ([4]; confirmatory screen, qHTS curve class, negative sign = inhibitory curve): -1.2
- CONFIRMATORY SCREEN Efficacy (%) ([4]; confirmatory screen, negative = inhibition): -45%
- IC50 ([4]; confirmatory screen, read-out: CONFIRMATORY SCREEN IC50): 5.6 µM
- Efficacy (%) ([4]; qHTS FP screen hits, Table S2, negative = inhibition): -37%
- Curve Class ([4]; qHTS FP screen hits, Table S2, one class per curve where COUNT > 1, negative sign = inhibitory curve): -1.2
- IC50 ([4]; qHTS FP screen hits, Table S2, read-out: IC50): 5 µM
- COUNTERSCREEN Efficacy (%) [5]: -14%
- COUNTERSCREEN Confirm? ([5]; YES/NO call): YES
- COUNTERSCREEN Curve Class ([5]; qHTS curve class): 4
- IC50 [6]: 15.6 µM
- Papp [7]: 1020 nm/s
- Kd [8]: 2.9 µM
- P-selectin (CD62P) exposure [9]: dose-dependent inhibition of platelet activation
- IC50 ([10]; FP assay in the presence of glutathione (GSH +), read-out: GSH (+) Assay IC50): 1.2 µM
- IC50 ([10]; FP assay without glutathione (GSH -), read-out: GSH (-) Assay IC50): 4 µM
- GSH/CIB1 IC50 ratio ([10]; ratio of GSH (+) IC50 to GSH (-) IC50): 0.3
- GSH Assay Result ([10]; thiol reactivity call: No change / Active): No change
